Experiments:
[1] = system: direct-patient pancreatic cancer xenografts; test: Xenograft treatment, relative tumor growth inhibition (TGI); type: in vivo, mice
Excerpt: Four- to six-week-old female athymic (nu/nu) mice were purchased from Harlan (Harlan Laboratories, Washington, D.C.). The research protocol was approved by the Johns Hopkins University Animal Use and Care Committee and animals were maintained in accordance to guidelines of the American Association of Laboratory Animal Care. Xenografts obtained from F1 mice were excised and cut into small ˜3×3×3 mm fragments and then implanted subcutaneously in a group of five to six mice for each patient, with two small fragments in each mouse (F2) as described above for the original carcinoma. Half of the rest of the carcinoma was cryopreserved in liquid nitrogen and the other half is processed for biological studies. When the carcinoma reached a size of 1,500 mm^3, they were excised, cut into ˜3×3×3 mm fragments, and transplanted to the final cohort of mice to be treated with the drugs (F3 and successive passages). Further details of the establishment of the direct-patient pancreatic cancer xenografts are described in Rubio-Viqueira B, Jimeno A, Cusatis G, et al. An In vivo Platform for Translational Drug Development in Pancreatic Cancer. Clin Cancer Res 2006 12:4652-61.
Gemcitabine (Eli Lilly, Indianapolis, Ind.) was dissolved in saline. In some embodiments, docetaxel (Sanofi-Aventis, Bridgewater, N.J.) was dissolved in 50% ethanol and 50% DMSO. In other embodiments, docetaxel (Sanofi-Aventis, Bridgewater, N.J.) was dissolved in ethanol/polysorbate 80 as a stock solution and diluted 10-fold in 5% glucose for in vivo studies. Temsirolimus (Wyeth Research, Colleville, Pa.) was dissolved in 10% ethanol, 10% pluronic, and 80% PBS. All drugs were freshly prepared and used at an injection volume of 0.2 mL/20 g body weight. Drug doses and treatment schedules were obtained from published studies.
Xenografts from this second mouse-to-mouse passage (F3) were allowed to grow to a size of ˜200 mm^3, at which time five-to-six mice were randomly assigned to control and treatment groups. […] For docetaxel treatment group, mice were treated with 20 mg/kg once a week via intraperitoneal injection. For temsirolimus treatment group, mice were treated with 20 mg/kg/day via intraperitoneal injection. Mice were treated for 21-28 days, monitored daily for signs of toxicity, and were weighed thrice a week. Tumor size was evaluated thrice a week by caliper measurements using the following formula: tumor volume=[length×width^2]/2 as reported by van de Vijver M J, He Y D, van't Veer L J, et al. A Gene-Expression Signature as a Predictor of Survival in Breast Cancer. N Engl J Med 2002 347:1999-2009.
(§1) Relative tumor growth index (TGI) was calculated as TGI=(Ti−T0/Ci−C0) if Ti>T0 (indicates tumor growth inhibition) and TGI=(Ti−T0) if Ti≦T0 (indicates tumor regression). T and C represent tumor size in the treated and control group at the last of experiment, respectively; T0 and C0 represent tumor size in the treated and control group at the start of treatment, respectively.

[2] = system: patient-derived xenografts refractory to gemcitabine; test: Pre-clinical second-line study in xenografts refractory to gemcitabine (TGI); type: in vivo, mice; conditions: for tumor volume change: second-line molecular mimicry choice (docetaxel)
Procedure: FIG. 11 illustrates a pre-clinical design.
FIG. 12 illustrates validation on the xenografts of FIG. 11 based on prediction according to the present invention. Four xenograft cases were used. […] A case is defined as a responder to the drug treatment if Tumor Growth Inhibition (TGI) is <20%. Negative TGI values indicate tumor regression.
as §1
Seven FDA approved anticancer agents (capecitabine, cisplatin, docetaxel, doxorubicin, etoposide, irinotecan and oxaliplatin) were used as potential second line of drugs for selection according to the present invention. The one-size-fits-all treatment was erlotinib, an FDA approved targeted therapy for advanced pancreatic cancer. See Moore M J, Goldstein D, Hamm J, et al. Erlotinib plus gemcitabine compared with gemcitabine alone in patients with advanced pancreatic cancer: a phase Ill trial of the National Cancer Institute of Canada Clinical Trials Group. J Clin Oncol 25:1960-06 2007. […] Xenograft models of these cases were randomly assigned to (i) control, (ii) erlotinib arm (one-size-fits-all second line treatment) and (iii) molecular mimicry arm (i.e., drug selection according to the present invention). For the molecular mimicry arm, the baseline gene expression profiles of these cases were connected the NCI reference panel using GS-CMAP, and one of the seven anticancer agents was assigned to the case based on comparing the GI50 among these drugs. Molecular mimicry predicted that JH033 and JH034 are sensitive to docetaxel, PANC185 is sensitive to irinotecan and PANC219 is sensitive to doxorubicin. These cases were treated with the molecular mimicry choice of drugs and tumor volumes were measured. At the end of the experiment, xenografts treated with molecular mimicry choice of drugs had higher tumor growth inhibition than their litter mates treated with erlotinib (FIGS. 12 and 13).

## CC(=O)O[C@@]12CO[C@@H]1C[C@H](O)[C@@]1(C)C(=O)[C@H](O)C3=C(C)[C@@H](OC(=O)[C@H](O)[C@@H](NC(=O)OC(C)(C)C)c4ccccc4)C[C@@](O)([C@@H](OC(=O)c4ccccc4)[C@H]21)C3(C)C [docetaxel]
[1]; xenograft PANC185, docetaxel
  xenograft response (sensitive/resistant): resistant
[1]; xenograft PANC185, docetaxel for 21 days
  TGI: 83%
[1]; xenograft PANC215, docetaxel
  xenograft response (sensitive/resistant): resistant
[1]; xenograft PANC215, docetaxel for 21 days
  TGI: 41%
[1]; xenograft PANC265, docetaxel
  xenograft response (sensitive/resistant): sensitive
[1]; xenograft PANC265, docetaxel for 21 days
  TGI: −79%
[2]; xenograft JH033
  tumor volume change: Regression in tumor volume
[2]; xenograft JH034
  tumor volume change: Regression in tumor volume

## CO[C@H]1C[C@@H]2CC[C@@H](C)[C@@](O)(O2)C(=O)C(=O)N2CCCC[C@H]2C(=O)O[C@H]([C@H](C)C[C@@H]2CC[C@@H](OC(=O)C(C)(CO)CO)[C@H](OC)C2)CC(=O)[C@H](C)/C=C(\C)[C@@H](O)[C@@H](OC)C(=O)[C@H](C)C[C@H](C)/C=C/C=C/C=C/1C [temsirolimus]
[1]; xenograft JH024, after temsirolimus treatment
  TGI: 94%
[1]; xenograft JH024, temsirolimus
  xenograft response (sensitive/resistant): resistant
[1]; xenograft PANC219, after temsirolimus treatment
  TGI: −23%
[1]; xenograft PANC219, temsirolimus
  xenograft response (sensitive/resistant): sensitive

## C#Cc1cccc(Nc2ncnc3cc(OCCOC)c(OCCOC)cc23)c1 [erlotinib]
[2]; four xenograft cases (PANC185, PANC219, JH033, JH034)
  median TGI: 33%
[2]; four xenograft cases, second-line arm
  mean TGI %: 30%
[2]; of four xenograft cases, second-line treatment
  responders (TGI <20%): only one xenograft responded

— US20090221522A1, “METHODS TO CORRECT GENE SET EXPRESSION PROFILES TO DRUG SENSITIVITY” (The Johns Hopkins University, priority 2008, published 2009)
